Source: ChEMBL document CHEMBL4699511, “Cedrol, a Sesquiterpene Alcohol, Enhances the Anticancer Efficacy of Temozolomide in Attenuating Drug Resistance via Regulation of the DNA Damage Response and MGMT Expression” (J Nat Prod, 2020)
The source made the active and inactive calls. No cut-off for these calls is given here.

Columns and labels:
RG2 [1] = test: Induction of apoptosis in rat RG2 cells assessed as increase in chromatin condensation at 112.4 uM after 48 hrs by TUNEL assay; format: functional, cell-based
[2] = Synergistic cytotoxicity against rat CTX TNA2 cells assessed as synergistic effect index at 89.9 uM after 48 hrs in presence of 515.1 uM TMZ by MTT assay; format: cell-based; conditions: ctx tna2, 48 h
DBTRG-05MG [3] = test: Potentiation of TMZ-induced antitumor activity against human DBTRG-05MG cells xenografted in BALB/c nude mouse assessed as increase in apoptotic cells at 75 mg/kg, sc co-treated with TMZ for 18 days by TUNEL assay; format: functional, organism-based; conditions: time 18.0 day
RG2 [4] = test: Induction of apoptosis in rat RG2 cells assessed as phosphorylated caspace-9 expression at 112.4 uM after 48 hrs by Western blot analysis (reference value: 1); format: functional
RG2 [5] = test: Synergistic cytotoxicity against rat RG2 cells assessed as synergistic effect index at 89.9 uM after 48 hrs in presence of 103 uM TMZ by MTT assay; format: functional
[6] = Synergistic cytotoxicity against rat CTX TNA2 cells assessed as synergistic effect index at 89.9 uM after 48 hrs in presence of 412.1 uM TMZ by MTT assay; format: cell-based; conditions: ctx tna2, 48 h
[7] = Synergistic cytotoxicity against rat CTX TNA2 cells assessed as synergistic effect index at 89.9 uM after 48 hrs in presence of 103 uM TMZ by MTT assay; format: cell-based; conditions: ctx tna2, 48 h
RG2 [8] = test: Synergistic cytotoxicity against rat RG2 cells assessed as combination index at 89.9 uM after 48 hrs in presence of 103 uM TMZ by MTT assay; format: functional
DBTRG-05MG [9] = test: Induction of cell cycle arrest in human DBTRG-05MG cells assessed as accumulation at G0/G1 phase at 112.4 uM after 12 hrs by propidium iodide staining based flow cytometric analysis (reference value: 47.16 +/- 1.55%); format: functional
[10] = Effect on ERK expression in human DBTRG-05MG cells at 112.4uM after 48 hrs by Western blot analysis (reference value: 1); format: functional
DBTRG-05MG [11] = test: Induction of cell cycle arrest in human DBTRG-05MG cells assessed as accumulation at G2/M phase at 112.4 uM after 48 hrs in presence of TMZ by propidium iodide staining based flow cytometric analysis (reference value: 30.08 +/- 0.1%); format: functional
DBTRG-05MG [12] = test: Induction of DNA damage in human DBTRG-05MG cells assessed as Chk1 phosphorylation at ser345 residues at 112.4 uM after 48 hrs by Western blot analysis (reference value: 1); format: functional
DBTRG-05MG [13] = test: Induction of apoptosis in human DBTRG-05MG cells assessed as Bcl2 expression at 112.4 uM after 48 hrs in presence of TMZ by Western blot analysis (reference value: 1); format: functional
[14] = Synergistic cytotoxicity against rat CTX TNA2 cells assessed as synergistic effect index at 112.4 uM after 48 hrs in presence of 103 uM TMZ by MTT assay; format: cell-based; conditions: ctx tna2, 48 h
DBTRG-05MG [15] = test: Induction of apoptosis in human DBTRG-05MG cells assessed as phosphorylated caspace-9 expression at 112.4 uM after 48 hrs by Western blot analysis (reference value: 1); format: functional
DBTRG-05MG [16] = test: Inhibition of ERK phosphorylation at Tyr204 residues in human DBTRG-05MG cells at 112.4uM after 48 hrs by Western blot analysis (reference value: 1); format: cell-based
RG2 [17] = test: Induction of DNA damage in rat RG2 cells assessed as Chk2 phosphorylation at Thr68 at 112.4 uM after 48 hrs by Western blot analysis (reference value: 1); format: functional
[18] = Synergistic cytotoxicity against rat CTX TNA2 cells assessed as synergistic effect index at 134.9 uM after 48 hrs in presence of 515.1 uM TMZ by MTT assay; format: cell-based; conditions: ctx tna2, 48 h
RG2 [19] = test: Synergistic cytotoxicity against rat RG2 cells assessed as synergistic effect index at 134.9 uM after 48 hrs in presence of 309 uM TMZ by MTT assay; format: functional
RG2 [20] = test: Induction of DNA damage in rat RG2 cells assessed as Chk1 phosphorylation at ser345 at 112.4 uM after 48 hrs by Western blot analysis (reference value: 1); format: functional
RG2 [21] = test: Synergistic cytotoxicity against rat RG2 cells assessed as combination index at 112.4 uM after 48 hrs in presence of 309 uM TMZ by MTT assay; format: functional
DBTRG-05MG [22] = test: Potentiation of TMZ-induced antitumor activity against human DBTRG-05MG cells xenografted in BALB/c nude mouse assessed as increase DNA damage at 75 mg/kg, sc co-treated with TMZ for 18 days by p.H2A.X staining based fluorescent immunocytochemistry method; format: functional, organism-based; conditions: time 18.0 day
RG2 [23] = test: Induction of cell cycle arrest in rat RG2 cells assessed as accumulation at G2/M phase at 112.4 uM after 12 hrs in presence of TMZ by propidium iodide staining based flow cytometric analysis (reference value: 20.04 +/- 0.55%); format: functional
RG2 [24] = test: Induction of cell cycle arrest in rat RG2 cells assessed as CyclinA expression at 112.4 uM after 48 hrs by Western blot analysis (reference value: 1); format: functional
DBTRG-05MG [25] = test: Induction of apoptosis in human DBTRG-05MG cells assessed as phosphorylated caspace-9 expression at 206 uM after 48 hrs by Western blot analysis (reference value: 1); format: functional
DBTRG-05MG [26] = test: Antitumour activity against human DBTRG-05MG cells xenografted in BALB/c nude mouse assessed as increase in survival time at 5 mg/kg, ip for 5 days and measured every 2 days; format: functional, organism-based; conditions: time 5.0 day
DBTRG-05MG [27] = test: Induction of cell cycle arrest in human DBTRG-05MG cells assessed as p21 expression at 206 uM after 48 hrs by Western blot analysis (reference value: 1); format: functional
DBTRG-05MG [28] = test: Induction of cell cycle arrest in human DBTRG-05MG cells assessed as p53 expression at 206 uM after 48 hrs by Western blot analysis (reference value: 1); format: functional
DBTRG-05MG [29] = test: Induction of apoptosis in human DBTRG-05MG cells assessed as Bax expression at 206 uM after 48 hrs by Western blot analysis (reference value: 1); format: functional
DBTRG-05MG [30] = test: Inhibition of ERK phosphorylation at Tyr204 residues in human DBTRG-05MG cells at 206 uM after 48 hrs by Western blot analysis (reference value: 1); format: cell-based
[31] = Effect on AKT expression in human DBTRG-05MG cells at 206 uM after 48 hrs by Western blot analysis (reference value: 1); format: functional
DBTRG-05MG [32] = test: Induction of cell cycle arrest in human DBTRG-05MG cells assessed as CDK2 expression at 206 uM after 48 hrs by Western blot analysis (reference value: 1); format: functional
RG2 [33] = test: Induction of cell cycle arrest in rat RG2 cells assessed as CyclinD1 expression at 206 uM after 48 hrs by Western blot analysis (reference value: 1); format: functional
[34] = Effect on JNK expression in human DBTRG-05MG cells at 206 uM after 48 hrs by Western blot analysis (reference value: 1); format: functional
DBTRG-05MG [35] = test: Induction of apoptosis in human DBTRG-05MG cells assessed as Bcl2 expression at 206 uM after 48 hrs by Western blot analysis (reference value: 1); format: functional

## C[C@@H]1CC[C@H]2C(C)(C)[C@H]3C[C@@]12CC[C@@]3(C)O [CEDROL]
RG2 [1]
  Activity: Active
[2]
  Activity_index: 0.68
DBTRG-05MG [3]
  Activity: Active
RG2 [4]
  fold change (FC): 0.6
RG2 [5]
  Activity_index: 0.65
[6]
  Activity_index: 0.56
[7]
  Activity_index: 0.24
RG2 [8]
  CI: 0.88
DBTRG-05MG [9]
  Activity: 54.65%
[10]
  fold change (FC): 1
DBTRG-05MG [11]
  Activity: 38.26%
DBTRG-05MG [12]
  fold change (FC): 0.9
DBTRG-05MG [13]
  fold change (FC): 0.9
[14]
  Activity_index: 0.26
DBTRG-05MG [15]
  fold change (FC): 0.8
DBTRG-05MG [16]
  fold change (FC): 0.9
RG2 [17]
  fold change (FC): 1
[18]
  Activity_index: 0.7
RG2 [19]
  Activity_index: 0.89
RG2 [20]
  fold change (FC): 1.1
RG2 [21]
  CI: 0.9
DBTRG-05MG [22]
  Activity: Active
RG2 [23]
  Activity: 18.79%
RG2 [24]
  fold change (FC): 0.4

## Cn1nnc2c(C(N)=O)ncn2c1=O [TEMOZOLOMIDE]
DBTRG-05MG [25]
  fold change (FC): 0.3
DBTRG-05MG [26]
  Activity: Active
DBTRG-05MG [27]
  fold change (FC): 2.1
DBTRG-05MG [28]
  fold change (FC): 2
DBTRG-05MG [29]
  fold change (FC): 1.4
DBTRG-05MG [30]
  fold change (FC): 0.8
[31]
  fold change (FC): 1
DBTRG-05MG [32]
  fold change (FC): 0.8
RG2 [33]
  fold change (FC): 1
[34]
  fold change (FC): 0.7
DBTRG-05MG [35]
  fold change (FC): 1.3
